# Reference: PubChem BioAssay (NCI)
#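 Five compound concentrations were applied to cells in 96-well plates for 48 hours; endpoints were derived by simple linear interpolation of the resulting dose-response curve. TGI: total growth inhibition.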
# Columns and labels:
# Experiment in all cases: growth of human tumour cells (NCI), 48 h
# 786-0 renal = test system: 786-0 renal
# A498 renal = test system: A498 renal
# ACHN renal = test system: ACHN renal
# CCRF-CEM leukemia = test system: CCRF-CEM leukemia
# COLO 205 colon = test system: COLO 205 colon
# HCC-2998 colon = test system: HCC-2998 colon
# HL-60(TB) leukemia = test system: HL-60(TB) leukemia
# M14 melanoma = test system: M14 melanoma
# NCI-H23 lung = test system: NCI-H23 lung
# OVCAR-3 ovarian = test system: OVCAR-3 ovarian
# OVCAR-8 ovarian = test system: OVCAR-8 ovarian
# SF-295 CNS = test system: SF-295 CNS
# SK-MEL-5 melanoma = test system: SK-MEL-5 melanoma
# SN12C renal = test system: SN12C renal
# SNB-75 CNS = test system: SNB-75 CNS
# SW-620 colon = test system: SW-620 colon
# UO-31 renal = test system: UO-31 renal
# HS 578T breast = test system: HS 578T breast
# NCI/ADR-RES ovarian = test system: NCI/ADR-RES ovarian
SMILES,TGI (786-0 renal) [µM],TGI (A498 renal) [µM],TGI (ACHN renal) [µM],TGI (CCRF-CEM leukemia) [µM],TGI (COLO 205 colon) [µM],TGI (HCC-2998 colon) [µM],TGI (HL-60(TB) leukemia) [µM],TGI (M14 melanoma) [µM],TGI (NCI-H23 lung) [µM],TGI (OVCAR-3 ovarian) [µM],TGI (OVCAR-8 ovarian) [µM],TGI (SF-295 CNS) [µM],TGI (SK-MEL-5 melanoma) [µM],TGI (SN12C renal) [µM],TGI (SNB-75 CNS) [µM],TGI (SW-620 colon) [µM],TGI (UO-31 renal) [µM],TGI (HS 578T breast) [µM],TGI (NCI/ADR-RES ovarian) [µM]
CCCCOC(=O)C1C2CCC(O2)C1C(=O)OCCCC (stereo not given),> 60.9,> 100,> 100,> 100,> 57.3,> 100,> 100,> 82.1,> 100,> 100,> 100,> 100,> 100,> 100,> 100,> 22.9,> 100,–,–
O=C1CCCCC/C1=C\c1cccc(Cl)c1,> 100,> 100,> 100,30.4,> 100,> 100,–,> 100,> 100,> 100,–,50.2,> 100,> 100,> 100,60.1,> 100,94.3,–
O=C(Nc1ccc(Cl)cc1)NS(=O)(=O)c1coc2cc(F)ccc2c1=O,> 100,–,> 100,> 100,> 100,> 100,–,> 100,> 100,> 100,> 100,> 100,> 100,> 100,> 100,> 100,> 100,> 100,> 100
O=[N+]([O-])/C(C(Cl)=C(Cl)Cl)=C(\N1CCOCC1)n1nnc2ccccc21,44.8,37.8,34.9,–,34.7,–,–,33.4,32.7,42.2,–,34.9,35.3,42.9,42.4,–,33,–,65.1
CN(C)Nc1cc(=O)[nH]c(=O)[nH]1,> 100,> 100,> 100,> 100,> 100,> 100,> 100,> 100,–,> 100,> 100,> 100,> 100,> 100,–,> 100,> 100,–,> 100
C/C(CC(=O)Nc1ccc([N+](=O)[O-])cc1)=N\NC(N)=O,> 100,> 100,> 100,> 71.4,> 100,> 100,> 100,> 100,> 100,> 100,> 100,> 100,> 100,> 100,> 100,> 100,> 100,–,–
O=c1[nH]c2cc([N+](=O)[O-])ccc2nc1/C(=N/Nc1ccccc1)C(O)c1ccccc1Cl (stereo not given),> 100,–,> 100,> 100,> 100,64.5,> 100,> 100,> 100,> 100,> 100,> 100,> 100,> 100,> 100,> 100,> 100,–,–
O=c1[nH]c2cc(Cl)ccc2nc1/C(=N\O)C(O)c1cccc([N+](=O)[O-])c1 (stereo not given),> 100,–,> 100,> 100,> 100,> 100,> 100,> 100,> 100,> 100,> 100,> 100,> 100,> 100,> 100,> 100,> 100,–,–
CC(=O)OC1COC(n2c(O)c(N=NC(N)=S)c3cc(Br)ccc32)C(OC(C)=O)C1OC(C)=O (stereo not given),> 100,–,> 100,> 100,> 100,> 100,> 100,> 100,> 100,> 100,> 100,> 100,> 100,> 100,–,> 100,–,–,–
CCOC(=O)NC(=O)c1cn(CCOC(=O)CCCCCCCCC(=O)OCCn2cc(C(=O)NC(=O)OCC)c(=O)[nH]c2=O)c(=O)[nH]c1=O,> 100,> 100,> 100,> 100,–,> 100,> 100,> 100,56.7,> 100,> 100,> 100,> 100,> 100,> 100,> 100,> 100,–,–
C/C(=N\NS(=O)(=O)c1ccc(C)cc1)C(CN1CCCCC1)C(c1ccccc1)c1c(O)c2ccccc2oc1=O (stereo not given),> 100,> 100,> 100,> 100,> 100,> 100,> 100,> 100,> 100,> 100,> 100,> 100,> 100,> 100,> 100,> 100,> 100,–,–
C[N+](C)(C)CC(=O)N/N=C/c1oc(-c2c(O)ccc3ccccc23)c(-c2c(O)ccc3ccccc23)c1[N+](=O)[O-],44.3,31.6,32.5,76.7,42.2,34.3,66.6,37.2,37.2,44.2,78.6,47.4,22.9,92.7,61.1,> 100,36,–,–
O=C(c1cccs1)N(C(=S)N1CCN(c2ccccn2)CC1)c1ccccc1,> 100,–,> 100,> 100,> 100,–,> 100,> 100,> 100,> 100,> 100,> 100,> 100,> 100,> 100,> 100,> 100,–,–
CCSc1[nH]c(NC(=S)NC(=O)c2ccccc2Cl)c(C(N)=O)c1C(N)=O,> 10,–,–,> 10,> 10,> 10,> 10,> 10,> 10,–,> 10,> 10,> 10,> 10,> 10,> 10,–,–,–
O=c1c2c(oc3ccccc13)-c1ccccc1OC2,64.2,–,> 100,> 100,–,> 100,–,> 100,> 100,> 100,> 100,> 100,> 100,> 100,50.7,> 100,> 100,–,> 100
